{"source": "patent US12458625B2", "about": "“Methods and compositions for soft anticholinergic esters” (Bodor Laboratories, Inc., priority 2015, dated 2025)", "origin": "cited, not measured here", "details": "solid oral form", "data": [{"compound": "C[N+]1(C)CCC(OC(=O)C(O)(c2ccccc2)C2CCCC2)C1", "note": "(stereo not drawn) [glycopyrrolate]", "values": [{"measurement": "reducing drooling", "setting": "children", "result": "effective in reducing drooling"}, {"measurement": "dropped out of the study because of adverse effects to the medication", "setting": "children, most with cerebral palsy", "result": "over 20%"}, {"measurement": "children affected by adverse events", "setting": "most with cerebral palsy", "result": 69, "unit": "%"}]}]}
